Data on five compounds can be found in ChEMBL document CHEMBL3393036, “Tetra-substituted pyridinylimidazoles as dual inhibitors of p38α mitogen-activated protein kinase and c-Jun N-terminal kinase 3 for potential treatment of neurodegenerative diseases” (J Med Chem, 2015).

SMILES strings stand for the structures.

In assay [1] the target is T1, Ephrin type-B receptor 4 (Homo sapiens) (UniProt P54760).
T1 sequence (whole entry): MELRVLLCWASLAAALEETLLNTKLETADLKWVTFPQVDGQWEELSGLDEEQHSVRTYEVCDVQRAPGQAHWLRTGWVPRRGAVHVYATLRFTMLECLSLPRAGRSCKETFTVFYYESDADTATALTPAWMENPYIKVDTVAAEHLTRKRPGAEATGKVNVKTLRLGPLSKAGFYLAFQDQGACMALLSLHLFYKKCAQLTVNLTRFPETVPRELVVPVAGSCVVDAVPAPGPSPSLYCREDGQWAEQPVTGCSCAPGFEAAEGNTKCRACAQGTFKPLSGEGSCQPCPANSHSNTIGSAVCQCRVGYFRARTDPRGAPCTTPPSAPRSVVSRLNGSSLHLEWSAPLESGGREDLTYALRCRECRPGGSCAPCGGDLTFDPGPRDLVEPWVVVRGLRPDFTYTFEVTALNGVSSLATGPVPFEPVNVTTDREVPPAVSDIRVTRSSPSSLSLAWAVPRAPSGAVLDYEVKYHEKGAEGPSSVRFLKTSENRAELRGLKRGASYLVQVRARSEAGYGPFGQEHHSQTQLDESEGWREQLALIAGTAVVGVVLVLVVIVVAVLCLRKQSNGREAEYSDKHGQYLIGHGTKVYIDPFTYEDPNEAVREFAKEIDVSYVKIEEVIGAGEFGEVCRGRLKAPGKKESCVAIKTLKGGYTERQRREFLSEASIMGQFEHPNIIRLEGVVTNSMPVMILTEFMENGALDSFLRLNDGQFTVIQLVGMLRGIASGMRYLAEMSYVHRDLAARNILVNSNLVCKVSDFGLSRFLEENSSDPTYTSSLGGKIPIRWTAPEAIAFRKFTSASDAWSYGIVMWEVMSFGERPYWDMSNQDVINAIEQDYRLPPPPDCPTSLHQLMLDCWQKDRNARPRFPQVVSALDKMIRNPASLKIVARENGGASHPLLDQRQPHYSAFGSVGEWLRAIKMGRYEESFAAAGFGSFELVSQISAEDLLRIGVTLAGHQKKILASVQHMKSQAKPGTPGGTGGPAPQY
The assay is described as follows: Inhibition of EPHB4 (unknown origin) at 5.5 uM by Caliper Mobility Shift Assay.

For assay [2], the target named is Rho-associated protein kinase 2 (Homo sapiens) (UniProt O75116). The assay is described as follows: Inhibition of ROCK2 (unknown origin) at 5.5 uM by Caliper Mobility Shift Assay.
Assay [3] addresses Epidermal growth factor receptor (Homo sapiens) (UniProt P00533). The assay is described as follows: Inhibition of EGFR (unknown origin) assessed as phosphorylation of ATF-2 at 5.5 uM by ELISA.
Assay [4] concerns the target T2, Activin receptor type-1 (Homo sapiens) (UniProt Q04771).
T2 sequence (whole entry): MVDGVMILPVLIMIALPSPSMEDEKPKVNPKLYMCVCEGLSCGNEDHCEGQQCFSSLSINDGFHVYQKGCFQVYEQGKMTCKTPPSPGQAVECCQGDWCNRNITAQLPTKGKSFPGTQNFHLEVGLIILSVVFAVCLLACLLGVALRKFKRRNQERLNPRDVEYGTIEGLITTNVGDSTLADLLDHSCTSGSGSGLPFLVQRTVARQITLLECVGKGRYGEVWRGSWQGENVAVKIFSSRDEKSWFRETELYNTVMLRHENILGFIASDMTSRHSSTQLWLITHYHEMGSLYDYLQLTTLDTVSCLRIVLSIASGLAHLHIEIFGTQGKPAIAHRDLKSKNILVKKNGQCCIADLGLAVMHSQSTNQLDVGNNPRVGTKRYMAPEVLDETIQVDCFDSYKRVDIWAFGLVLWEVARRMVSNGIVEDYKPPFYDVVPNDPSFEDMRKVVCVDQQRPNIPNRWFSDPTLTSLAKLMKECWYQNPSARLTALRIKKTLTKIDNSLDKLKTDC
The assay is described as follows: Inhibition of ALK2 (unknown origin) assessed as phosphorylation of ATF-2 at 5.5 uM by ELISA. (An ELISA detects its analyte on a solid surface through an enzyme-linked reagent.)

Sequence of Rho-associated protein kinase 2 (Homo sapiens) (O75116 whole entry, looked up): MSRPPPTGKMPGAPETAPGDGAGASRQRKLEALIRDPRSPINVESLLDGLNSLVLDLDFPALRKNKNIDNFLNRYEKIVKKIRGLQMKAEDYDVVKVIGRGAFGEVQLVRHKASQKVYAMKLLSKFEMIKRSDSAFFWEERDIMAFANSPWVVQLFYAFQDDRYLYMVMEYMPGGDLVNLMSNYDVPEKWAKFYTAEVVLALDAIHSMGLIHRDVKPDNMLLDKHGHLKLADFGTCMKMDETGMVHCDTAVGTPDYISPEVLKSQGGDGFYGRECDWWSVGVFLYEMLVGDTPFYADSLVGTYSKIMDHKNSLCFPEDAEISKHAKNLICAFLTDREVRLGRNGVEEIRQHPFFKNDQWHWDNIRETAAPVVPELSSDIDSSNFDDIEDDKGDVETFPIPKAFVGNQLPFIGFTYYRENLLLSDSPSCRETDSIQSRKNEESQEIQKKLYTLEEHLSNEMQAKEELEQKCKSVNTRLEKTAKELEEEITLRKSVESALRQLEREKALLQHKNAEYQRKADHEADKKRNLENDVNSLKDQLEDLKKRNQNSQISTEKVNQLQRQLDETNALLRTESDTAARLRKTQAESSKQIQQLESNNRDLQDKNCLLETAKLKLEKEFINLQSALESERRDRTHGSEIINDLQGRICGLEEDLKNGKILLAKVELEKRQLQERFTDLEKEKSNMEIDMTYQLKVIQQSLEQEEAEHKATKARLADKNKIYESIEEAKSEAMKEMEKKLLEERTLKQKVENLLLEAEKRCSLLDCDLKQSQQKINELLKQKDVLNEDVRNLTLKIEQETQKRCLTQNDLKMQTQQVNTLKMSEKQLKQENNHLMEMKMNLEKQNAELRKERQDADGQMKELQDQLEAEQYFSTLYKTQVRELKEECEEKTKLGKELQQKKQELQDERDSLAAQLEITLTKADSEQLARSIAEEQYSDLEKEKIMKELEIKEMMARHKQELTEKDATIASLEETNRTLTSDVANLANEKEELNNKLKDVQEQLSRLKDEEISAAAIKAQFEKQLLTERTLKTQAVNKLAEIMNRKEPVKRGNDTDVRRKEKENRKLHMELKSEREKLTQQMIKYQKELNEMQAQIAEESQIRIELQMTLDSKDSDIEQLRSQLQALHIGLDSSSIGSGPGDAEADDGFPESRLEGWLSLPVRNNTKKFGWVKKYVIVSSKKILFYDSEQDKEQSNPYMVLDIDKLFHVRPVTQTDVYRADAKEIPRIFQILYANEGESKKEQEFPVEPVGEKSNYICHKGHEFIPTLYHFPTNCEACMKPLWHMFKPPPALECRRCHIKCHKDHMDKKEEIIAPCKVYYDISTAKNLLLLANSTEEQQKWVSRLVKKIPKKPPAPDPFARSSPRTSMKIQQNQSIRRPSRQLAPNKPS
Sequence of Epidermal growth factor receptor (Homo sapiens) (P00533 whole entry): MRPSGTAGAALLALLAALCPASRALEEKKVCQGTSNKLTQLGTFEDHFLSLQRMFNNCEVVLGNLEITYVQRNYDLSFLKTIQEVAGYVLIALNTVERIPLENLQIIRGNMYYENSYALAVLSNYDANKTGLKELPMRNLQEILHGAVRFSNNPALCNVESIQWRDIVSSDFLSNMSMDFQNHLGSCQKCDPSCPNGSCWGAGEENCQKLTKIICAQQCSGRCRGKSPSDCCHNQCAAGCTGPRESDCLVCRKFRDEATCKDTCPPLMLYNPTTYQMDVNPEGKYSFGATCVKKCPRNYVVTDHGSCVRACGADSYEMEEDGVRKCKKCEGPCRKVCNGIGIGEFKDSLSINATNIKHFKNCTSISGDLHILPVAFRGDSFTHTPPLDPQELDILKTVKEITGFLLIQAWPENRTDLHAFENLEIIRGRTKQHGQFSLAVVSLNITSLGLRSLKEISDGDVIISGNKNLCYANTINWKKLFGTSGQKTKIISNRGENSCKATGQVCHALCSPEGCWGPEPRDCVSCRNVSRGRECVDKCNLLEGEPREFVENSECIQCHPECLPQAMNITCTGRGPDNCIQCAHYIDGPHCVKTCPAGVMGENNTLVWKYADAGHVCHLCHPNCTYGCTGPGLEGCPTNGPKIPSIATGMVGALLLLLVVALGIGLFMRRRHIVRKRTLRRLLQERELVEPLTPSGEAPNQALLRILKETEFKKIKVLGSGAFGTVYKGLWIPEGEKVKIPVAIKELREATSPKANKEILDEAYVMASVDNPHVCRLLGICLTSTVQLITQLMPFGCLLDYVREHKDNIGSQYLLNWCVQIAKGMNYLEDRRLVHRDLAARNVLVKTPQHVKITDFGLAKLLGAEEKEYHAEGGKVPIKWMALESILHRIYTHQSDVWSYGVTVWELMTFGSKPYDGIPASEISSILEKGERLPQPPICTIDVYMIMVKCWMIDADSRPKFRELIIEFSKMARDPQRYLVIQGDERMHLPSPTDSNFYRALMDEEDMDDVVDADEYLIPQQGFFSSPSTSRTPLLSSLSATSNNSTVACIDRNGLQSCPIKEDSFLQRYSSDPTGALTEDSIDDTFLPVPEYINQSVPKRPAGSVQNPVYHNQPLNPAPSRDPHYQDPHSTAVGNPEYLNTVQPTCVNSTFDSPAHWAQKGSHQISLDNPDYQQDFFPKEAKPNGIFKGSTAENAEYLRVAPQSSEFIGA

One may read the inhibition as the percentage by which the read-out fell short of the control. In the case of `CC(=O)Nc1cc(-c2c(-c3ccc(F)cc3)nc(Sc3cccc(I)n3)n2C2CCCCC2)ccn1`, the inhibition in assay [1] and in assay [2] was below 50% each time.

Regarding `CC(=O)Nc1cc(-c2c(-c3ccc(F)cc3)nc(S/C=C\C(=O)O)n2C2CCCCC2)ccn1`, the inhibition in assay [1] and in assay [2] was below 50% in each case.

For the compound `CC(=O)Nc1cc(-c2c(-c3ccc(F)cc3)nc(S/C=C\C(=O)O)n2C2CC2)ccn1`, the inhibition is below 50% in assay [1], 51.8% in assay [3], 60.6% in assay [4] and below 50% in assay [2].

Consider `CC(=O)Nc1cc(-c2c(-c3ccc(F)cc3)nc(S/C=C\C(=O)O)n2CC2CCCO2)ccn1` (racemic), for which the inhibition in assay [1] and in assay [2] was below 50% throughout.

Consider `COC(Cn1c(SC2CCC(C(=O)O)CC2O)nc(-c2ccc(F)cc2)c1-c1ccnc(NC(C)=O)c1)OC` (configuration not stated), for which the inhibition in assay [1] and in assay [2] was below 50% throughout.
